Data taken from PubChem BioAssay AID2060483 (Molecular Pharmacology Branch, DTP, NCI, 2025).
Several values for one entry are separate records, joined by “and”; a condition that tells them apart may be missing. Equal entries are not always repeated. One block for each compound: values may come before it.

System: K24384-001-R-PDC complex spheroids, viability
Assay: Anticancer human tumor K24384-001-R-PDC patient-derived pancreatic adenocarcinoma cell line growth inhibition [GQUAD]
Details: for viability, T/C: stronger effect = lower value
Text: DNA G-quadruplex Stabilizer Agents in Combinations in Complex Spheroids
A high-throughput screen of multi-cell type tumor spheroids was designed to identify active combinations of DNA G-quadruplex stabilizer agents and targeted small molecules. Complex spheroids include a stromal component modeled by human endothelial cells (HUVEC) and fibroblasts modeled by human mesenchymal stem cells (MSCs). The concentration ranges selected for each drug and investigational agent were based upon clinically achievable concentrations if the clinical Cmax of the agent was known.
Compounds. The drugs and investigational agents: pidnarulex (CX-5461; NSC782164), APTO-253 (NSC789042), BRACO-19 (NSC847499), peposertib (NSC802822), ceralasertib (NSC780249), elimusertib (NSC800525), camonsertib (NSC841442), AZD-1390 (NSC803789), olaparib (NSC753686), talazoparib (NSC767125), ART-558 (NSC835418), sotorasib (NSC818433), MRTX-1133 (NSC836407), SN-38 (NSC673596), topotecan (NSC609699), etoposide (NSC141540), doxorubicin (NSC123127), gemcitabine (NSC613327), 5-fluorouracil (NSC19893), paclitaxel (NSC125973), vemurafenib (NSC761431), panobinostat (NSC761190), R-306465 (JNJ-16241199; NSC773264), adavosertib (NSC754352), TP-3654 (NSC805149), carboplatin (NSC241240), KSQ-4279 (NSC840948), and staurosporine (NSC755774) were obtained from the National Cancer Institute (NCI) Developmental Therapeutics Program Chemical Repository (34). The FDA-approved anticancer drug set is available from the NCI Developmental Therapeutics Program. […] The stock solutions were prepared in dimethyl sulfoxide (DMSO, Sigma-Aldrich, St. Louis, MO, cat. D2650) at 800-fold the tested concentration and stored at -70 degrees C prior to their use. All drugs and investigational agents were tested over a range starting from a high concentration at or near the clinical Cmax and decreasing in half-log increments. If the clinical Cmax for an agent had not been determined, the highest concentration tested was 10 microM.
2.3 Cell Culture. All cells were maintained in an incubator at 37 degrees C and 5% CO2 with 95% humidity. The PDC lines were cultured according to standard operating procedures established by the NCI PDMR. All PDCs were thawed and cultured in Matrigel-coated flasks prepared with a working solution of 1X Ham's F-12 nutrient mix, without supplementation (Invitrogen, cat. 11765054), 100 U/mL penicillin-streptomycin (Invitrogen, cat. 15140122), and 2.5% Matrigel (Corning Inc., cat. 354248) for the first three passages. The 857933-349-R-J2-PDC line was cultured in 6C/Colon 1B media, which includes advanced DMEM/F-12 (Thermo Fisher Scientific, cat. 12634028), 10 mM HEPES (Thermo Fisher Scientific, cat. 15630080), 1X GlutaMAX supplement (Thermo Fisher Scientific, cat. 35050061), 0.1 mg/mL primocin (InvivoGen, cat. ant-pm-2), 10% defined fetal bovine serum, heat inactivated (HyClone Laboratories Inc., cat. SH30070.03HI), 50% L-WRN conditioned media (ATCC, cat. CRL-3276), 1.25 mM N-Acetyl-L-cysteine (Sigma-Aldrich, cat. A9165), 10 mM nicotinamide (Sigma-Aldrich, cat. N0636), 1X B-27 supplement (Thermo Fisher Scientific, cat. 17504044), 1X N-2 supplement (Thermo Fisher Scientific, cat. 17502048), 10 microM Y-27632 dihydrochloride (Tocris Bioscience, cat. 1254), and 50 ng/mL human EGF recombinant protein (Thermo Fisher Scientific, cat. PHG0311). The 485176-168-R4-J1-PDC line was cultured in Panc media, which includes all 6C/Colon 1B media components plus 100 ng/mL human FGF-10 (Thermo Fisher Scientific, cat. 100-26), 500 nM SB-431542 (Selleckchem, cat. S1067), and gastrin (Tocris, cat. 3006).
[…]
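Note: spheroids exposed to compounds for seven days.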

Compound: CN(C)c1ccc(Nc2c3ccc(NC(=O)CCN4CCCC4)cc3nc3cc(NC(=O)CCN4CCCC4)ccc23)cc1
viability, T/C (compound 0.0316 µM): 101% [middle of 12 runs] | viability, T/C (compound 0.1 µM): 100% [middle of 12 runs] | viability, T/C (compound 0.316 µM): 101% [middle of 12 runs] | IC50 (compound alone, run of 02/26/2024): > 10 µM

Compound: CC(=O)O[C@H]1C(=O)[C@@]2(C)[C@H]([C@H](OC(=O)c3ccccc3)[C@]3(O)C[C@H](OC(=O)[C@H](O)[C@@H](NC(=O)c4ccccc4)c4ccccc4)C(C)=C1C3(C)C)[C@]1(OC(C)=O)CO[C@@H]1C[C@@H]2O
viability, T/C (compound 0.0316 µM): 33.8% and 31.3% and 53.9% | viability, T/C (compound 0.1 µM): 25.3% and 22% and 20.2% | viability, T/C (compound 0.316 µM): 23.4% and 18.5% and 29.6% | viability, T/C (compound 1 µM): 20.5% and 21.1% and 28.1% | viability, T/C (compound 3.16 µM): 25.6% and 20.9% and 26.2% | viability, T/C (compound 10 µM): 28.5% and 28.9% and 37.3% | IC50 (curve of compound): < 0.0316 µM

Compound: O=C(c1cc(Cc2n[nH]c(=O)c3ccccc23)ccc1F)N1CCN(C(=O)C2CC2)CC1 + CN(C)c1ccc(Nc2c3ccc(NC(=O)CCN4CCCC4)cc3nc3cc(NC(=O)CCN4CCCC4)ccc23)cc1
IC50 (curve of first compound, second compound 0.0316 µM): > 10 µM | IC50 (curve of first compound, second compound 0.1 µM): > 10 µM | IC50 (curve of first compound, second compound 0.316 µM): > 10 µM | IC50 (curve of first compound, second compound 1 µM): > 10 µM | IC50 (curve of first compound, second compound 3.16 µM): > 10 µM | IC50 (curve of first compound, second compound 10 µM): > 10 µM | viability, T/C (second compound 0.0316 µM, first compound 0.0316 µM): 91.5% | viability, T/C (second compound 0.0316 µM, first compound 0.1 µM): 87.2% | viability, T/C (second compound 0.0316 µM, first compound 0.316 µM): 103% | viability, T/C (second compound 0.0316 µM, first compound 1 µM): 85.3% | viability, T/C (second compound 0.0316 µM, first compound 3.16 µM): 94% | viability, T/C (second compound 0.0316 µM, first compound 10 µM): 65.3% | viability, T/C (second compound 0.1 µM, first compound 0.0316 µM): 98.4% | viability, T/C (second compound 0.1 µM, first compound 0.1 µM): 97% | viability, T/C (second compound 0.1 µM, first compound 0.316 µM): 102% | viability, T/C (second compound 0.1 µM, first compound 1 µM): 82.5% | viability, T/C (second compound 0.1 µM, first compound 3.16 µM): 78.7% | viability, T/C (second compound 0.1 µM, first compound 10 µM): 76.3% | viability, T/C (second compound 0.316 µM, first compound 0.0316 µM): 82.2% | viability, T/C (second compound 0.316 µM, first compound 0.1 µM): 90.1% | viability, T/C (second compound 0.316 µM, first compound 0.316 µM): 102% | viability, T/C (second compound 0.316 µM, first compound 1 µM): 81.2% | viability, T/C (second compound 0.316 µM, first compound 3.16 µM): 87.8% | viability, T/C (second compound 0.316 µM, first compound 10 µM): 72.2% | viability, T/C (second compound 1 µM, first compound 0.0316 µM): 85.3% | viability, T/C (second compound 1 µM, first compound 0.1 µM): 103% | viability, T/C (second compound 1 µM, first compound 0.316 µM): 97.1% | viability, T/C (second compound 1 µM, first compound 1 µM): 108% | viability, T/C (second compound 1 µM, first compound 3.16 µM): 92.9% | viability, T/C (second compound 1 µM, first compound 10 µM): 71.2% | viability, T/C (second compound 3.16 µM, first compound 0.0316 µM): 89.5% | viability, T/C (second compound 3.16 µM, first compound 0.1 µM): 90.6% | viability, T/C (second compound 3.16 µM, first compound 0.316 µM): 92% | viability, T/C (second compound 3.16 µM, first compound 1 µM): 100% | viability, T/C (second compound 3.16 µM, first compound 3.16 µM): 86.5% | viability, T/C (second compound 3.16 µM, first compound 10 µM): 62.2% | viability, T/C (second compound 10 µM, first compound 0.0316 µM): 86.4% | viability, T/C (second compound 10 µM, first compound 0.1 µM): 89.5% | viability, T/C (second compound 10 µM, first compound 0.316 µM): 94.6% | viability, T/C (second compound 10 µM, first compound 1 µM): 91.2% | viability, T/C (second compound 10 µM, first compound 3.16 µM): 86.2% | viability, T/C (second compound 10 µM, first compound 10 µM): 61.4%

Second part, led by results:

IC50 (curve of compound): > 10 µM
Compound: Cc1cccc(N(C)C(=O)C2C(O)CCN2c2nc(C)cc(C(F)(F)F)c2C#N)c1 (stereo not given)
viability, T/C (compound 0.0316 µM): 111% and 106% and 99% | viability, T/C (compound 0.1 µM): 106% and 98% and 82% | viability, T/C (compound 0.316 µM): 122% and 102% and 99.9% | viability, T/C (compound 1 µM): 91.4% and 86.8% and 108% | viability, T/C (compound 3.16 µM): 115% and 88% and 114% | viability, T/C (compound 10 µM): 115% and 106% and 127%

IC50 (curve of compound): 0.431 µM and 0.571 µM and 0.42 µM
Compound: O=C(NO)c1cnc(N2CCN(S(=O)(=O)c3ccc4ccccc4c3)CC2)nc1
viability, T/C (compound 0.0316 µM): 110% and 91.7% and 116% | viability, T/C (compound 0.1 µM): 81% and 99.9% and 83.9% | viability, T/C (compound 0.316 µM): 66.6% and 72.7% and 68.1% | viability, T/C (compound 3.16 µM): 0.26% and 0.27% and 0.09% | viability, T/C (compound 10 µM): 0.25% and 0.26% and 0.14%

IC50 (curve of compound): > 10 µM
Compound: O=C(c1cc(Cc2n[nH]c(=O)c3ccccc23)ccc1F)N1CCN(C(=O)C2CC2)CC1
viability, T/C (compound 0.0316 µM): 104% and 98.6% and 94.7% | viability, T/C (compound 0.1 µM): 93.9% and 91.4% and 99.2% | viability, T/C (compound 0.316 µM): 113% and 98.2% and 86.2% | viability, T/C (compound 1 µM): 93.1% and 97.6% and 91% | viability, T/C (compound 3.16 µM): 101% and 72.5% and 91.1% | viability, T/C (compound 10 µM): 79.3% and 69.8% and 82.3%

IC50 (curve of compound): 1.77 µM and 1.32 µM and 2.11 µM
Compound: CC1COCCN1c1cc(C2(S(C)(=N)=O)CC2)nc(-c2ccnc3[nH]ccc23)n1 (stereo not given)
viability, T/C (compound 0.0316 µM): 92.8% and 89.6% and 108% | viability, T/C (compound 0.1 µM): 96% and 93.6% and 99.5% | viability, T/C (compound 0.316 µM): 107% and 102% and 114% | viability, T/C (compound 1 µM): 65.9% and 56.5% and 74.8% | viability, T/C (compound 3.16 µM): 34.9% and 32.8% and 40% | viability, T/C (compound 10 µM): 33% (2×) and 26.7%
